Results as given in ChEMBL document CHEMBL6182876, “Design, synthesis and preliminary structure-activity relationship of 2-iminothiazolidine-4-one derivatives against Schistosoma japonicum in vitro and in vivo” (Eur J Med Chem, 2025).

Assays:
Schistosoma japonicum [1] = assay: Anti-schistosomal activity against adult Schistosoma japonicum assessed as worm mortality at 100 uM measured at 4 hrs relative to control; format: functional
Schistosoma japonicum [2] = assay: Anti-schistosomal activity against adult Schistosoma japonicum assessed as worm mortality at 100 uM measured at 8 hrs relative to control; format: functional
Schistosoma japonicum [3] = assay: Anti-schistosomal activity against adult Schistosoma japonicum assessed as worm mortality at 100 uM measured at 12 hrs relative to control; format: functional
Schistosoma japonicum [4] = assay: Anti-schistosomal activity against adult Schistosoma japonicum assessed as worm mortality at 100 uM measured at 24 hrs relative to control; format: functional
Schistosoma japonicum [5] = assay: Anti-schistosomal activity against adult Schistosoma japonicum assessed as worm mortality at 100 uM measured at 48 hrs relative to control; format: functional
Schistosoma japonicum [6] = assay: Anti-schistosomal activity against adult Schistosoma japonicum assessed as worm mortality at 100 uM measured at 72 hrs relative to control; format: functional
Schistosoma japonicum [7] = assay: Anti-schistosomal activity against adult Schistosoma japonicum measured at 72 hrs; format: functional, organism-based
Schistosoma japonicum [8] = assay: Anti-schistosomal activity against adult Schistosoma japonicum infected in ICR mouse assessed as number of worms at 25 mg/kg, ip administered for 7 days; format: functional; conditions: time 7 day
Schistosoma japonicum [9] = assay: Anti-schistosomal activity against juvenile Schistosoma japonicum infected in ICR mouse assessed as number of worms at 25 mg/kg, ip administered for 7 days; format: functional; conditions: time 7 day
Schistosoma japonicum [10] = assay: Anti-schistosomal activity against adult Schistosoma japonicum infected in ICR mouse assessed as reduction in worm burden at 25 mg/kg, ip administered for 7 days; format: functional; set-up: scale not given: the % may be the effect or the level left; conditions: time 7 day
Schistosoma japonicum [11] = assay: Anti-schistosomal activity against juvenile Schistosoma japonicum infected in ICR mouse assessed as reduction in worm burden at 25 mg/kg, ip administered for 7 days; format: functional; set-up: scale not given: the % may be the effect or the level left; conditions: time 7 day
[12] = Toxicity in ICR mouse infected with Schistosoma japonicum assessed as serum BUN level at 25 mg/kg, ip administered for 7 days; format: organism-based; conditions: in vivo, 168 h, time 7 day

| Compound | mortality at 100 µM (Schistosoma japonicum [1]) [%] | mortality at 100 µM (Schistosoma japonicum [2]) [%] | mortality at 100 µM (Schistosoma japonicum [3]) [%] | mortality at 100 µM (Schistosoma japonicum [4]) [%] | mortality at 100 µM (Schistosoma japonicum [5]) [%] | mortality at 100 µM (Schistosoma japonicum [6]) [%] | IC50 (Schistosoma japonicum [7]) [µM] | Activity (Schistosoma japonicum [8]) [%] | Activity (Schistosoma japonicum [9]) [%] | Activity (Schistosoma japonicum [10]) [%] | Activity (Schistosoma japonicum [11]) [%] | Activity [12] [mM] |
| --- | --- | --- | --- | --- | --- | --- | --- | --- | --- | --- | --- | --- |
| CCOC(=O)/C=C1\S/C(=N\c2ccccc2)N(Cc2ccccc2)C1=O | 0 | 0 | 0 | 0 | 0 | 0 | > 100 | – | – | – | – | – |
| CCOC(=O)/C=C1\S/C(=N\c2ccccc2)N(CCCN(C)C)C1=O | 0 | 0 | 0 | 10 | 40 | 100 | 97.7 | – | – | – | – | – |
| CCOC(=O)/C=C1\S/C(=N\c2cc(C(F)(F)F)cc(C(F)(F)F)c2)N(CCCN2CCN(C)CC2)C1=O | 0 | 40 | 100 | 100 | 100 | 100 | 36.4 | – | – | – | – | – |
| CCOC(=O)/C=C1\S/C(=N\c2ccccc2)N(CCN2CCCC2)C1=O | 0 | 0 | 0 | 0 | 50 | 50 | > 100 | – | – | – | – | – |
| CCOC(=O)/C=C1\S/C(=N\c2ccccc2Cl)N(CCCN2CCN(C)CC2)C1=O | 10 | 40 | 100 | 100 | 100 | 100 | 30.4 | 37 | 30 | 26 | 30 | 7.9 |
| CCOC(=O)/C=C1\S/C(=N\c2ccc(Br)cc2)N(CCCN2CCN(C)CC2)C1=O | 0 | 30 | 60 | 100 | 100 | 100 | 35.4 | – | – | – | – | – |
| CCOC(=O)/C=C1\S/C(=N\c2ccccc2)N(CCCN2CCOCC2)C1=O | 0 | 0 | 0 | 0 | 0 | 100 | 91.3 | – | – | – | – | – |
